Source: US8987486B2, “Trans-2-decenoic acid derivative and pharmaceutical agent containing the same” (Nagoya Industrial Science Research Institute, priority 2010, dated 2015)

Assays:
[1] = test system: PC12 cells; assay: Evaluation using PC12 cells; immunostaining method for MAPK phosphorylation; type: cell-based; conditions: 30 minutes
Procedure: PC12 cells were stimulated using the compound of the present invention and the phosphorylation of MAPK was evaluated by means of immunostaining of the cells. The specific operation procedure is as follows.
A cover glass was placed on a 24-well plate followed by coating with poly-L-lysine. PC12 cells were seeded in a cell density of 50,000 cells/well. (The amount of the medium was 400 μL) On the first day after seeding the cells, the medium was exchanged to DMEM containing 1% fetal bovine serum (FBS) and 0.06% L-glutamine.
The compound which was previously diluted with DMSO was dissolved in 100 μl of medium. After 12 to 16 hours from the medium exchange, 100 μl out of 400 μl of the medium was removed from each well and, in place of that, 100 μl of a medium containing the compound was added.
After 30 minutes from the addition, fixation was conducted using 4% paraformaldehyde (PFA) for 10 minutes. The fixed cells were washed with a Tris-buffered saline (TBS) and a TBS containing 0.3% Triton X was added thereto followed by incubating at 37° C. for 30 minutes. This was washed with a TBS and blocked with a TBS containing 3% skim milk for 30 minutes (at room temperature).
This was washed with a TBS for one time and a primary antibody (anti-phospho-p42/44 MAPK antibody; cell signalings; #9102 being diluted with TBS to an extent of 1,000-fold) was added thereto followed by subjecting to the reaction at 4° C. for one night. The primary antibody was removed and washed with a TBS for three times. After that, the secondary antibody (Alexa 488 goat anti-rabbit antibody; Invitrogen: being diluted to an extent of 1,000-fold using a TBS containing 1% Block Ace) was added thereto and the reaction was conducted at room temperature for 3 hours. The secondary antibody was removed and, after washing with a TBS, fixation was conducted with 4% PFA for 1 hour.
This was washed with a TBS, Hoechst (diluted with a TBS to an extent of 2000-fold) was added thereto and nuclear staining was conducted. This was washed and mounted.
Taking the photographic pictures and counting the positive cells were conducted as follows. An all-in-one microscope (manufactured by Keyence) was used, exposing time for pMAPK (green) was made 1/2.8 s, the place was appropriately decided in a Hoechst-stained image and the pictures were taken. Four pictures per one glass sheet were taken.
Photoshop (Adobe) was used and the cells having above a certain luminance were judged to be positive. All cells were labeled using Hoechst 33342 manufactured by Invitrogen and the rate of pMAPK-positive cells in Hoechst-positive cells was calculated. (cf. Table 7)

[2] = test system: paclitaxel-induced peripheral nerve disorder rats; assay: von Frey test in paclitaxel-induced peripheral nerve disorder rats; type: in vivo; conditions: Rattus norvegicus, ip; single intraperitoneal dose of 300 μ/kg; higher of the thresholds after 1 hour and 5 hours; normal threshold 15; read-out: Recovery rate of 50% reaction threshold value (%)
Procedure: The effect of the compound of the present invention was tested for a peripheral nerve disorder which is a side effect induced by the administration of paclitaxel (an anti-cancer agent) such as hyperesthesia including allodynia (severe pain induced by such tactile stimuli which usually cause no pain). The compound of the present invention was intraperitoneally administered to rats as a test drug to conduct a von Frey test.
Male SD rats of six weeks age (one group comprising six rats) were used as experimental animals and paclitaxel (2 mg/kg) was intraperitoneally administered every other day for four times in total to prepare paclitaxel-induced peripheral nerve disorder rats. During 18 and 25 days or during 20 to 27 days after initiation of paclitaxel administration, the test drug was intraperitoneally administered in a single dose of […] and the following von Frey test was conducted.
The rats of the above (1) were placed in a transparent acrylic cage with a wire-meshed floor and habituated for about three minutes and the 50% reaction threshold values to the mechanical stimulus of right hind limb were measured before administration of the test drug and after 1, 5 and 24 hours from initiation of the administration.
The measurement was conducted using von Frey filaments (manufactured by North Coast Medical Inc.) in accordance with the methods of Chaplan, et al. (Journal of Neuroscience Methods, vol. 53, no. 1, pages 55 to 63, 1994) and Dixon, et al. (Annual Review of Pharmacology and Toxicology, vol. 20, pages 441 to 462, 1980). […] The case where the rat escaped at the instance of removing the filament was also called positive. When the positive reaction was noted, stimulus was conducted similarly using a filament of one rank weaker while, when no reaction was noted, stimulus was conducted similarly using a filament of one rank stronger and the point when the reaction changed from negative to positive or from positive to negative was called the first two reactions. After that, stimulus was conducted for continuous four times by the same up-down method. A 50% reaction threshold value to the mechanical stimulus was measured using the reaction to the six stimuli in total and then (mean value)±(standard error) for each group was calculated. Incidentally, when stimulus reached by that of 15.0 g without positive reaction or, when positive reaction continued to 0.4 g, then 15.0 g or 0.25 g was adopted as each threshold value, respectively. With regard to the higher 50% reaction threshold value between the 50% threshold values after 1 hour and 5 hours from administration of a test drug, a recovery rate (%) of the 50% reaction threshold value was calculated by the following expression in which 15 was adopted as the normal threshold value. Recovery rate (%) of 50% reaction threshold value=[(50% reaction threshold value after 1 hour or 5 hours from administration of test drug)−(50% reaction threshold value before administration of test drug)]/[(Normal threshold value)−(50% reaction threshold value before administration of test drug)]

Q: Which “Rate of pMAPK-positive cells (%)” value ([1]; 62.5 μg/mL) does the source give for `CCCCCCC/C=C/C(=O)N(CC)CC` [Compound 31, (E)-N,N-diethyl dec-2-enamide] here?
A: 79%

Q: And the “Rate of pMAPK-positive cells (%)” value ([1]; 125 μg/mL)?
A: 95%

Q: What about the “Rate of pMAPK-positive cells (%)” value ([1]; 250 μg/mL) of the same molecule?
A: 98%

Q: And the “Rate of pMAPK-positive cells (%)” value ([1]; 500 μg/mL)?
A: 96%

Q: And the inhibition in vivo at 0.3 mg/kg [2]?
A: 43.1%

Q: With `CCCCCCC/C=C/C(=O)OCCCN(C)C` [Compound 2, (E)-3-(dimethylamino)propyl dec-2-enoate] as the molecule, how does the “Rate of pMAPK-positive cells (%)” value ([1]; 62.5 μg/mL) read?
A: 0%

Q: What about the “Rate of pMAPK-positive cells (%)” value ([1]; 125 μg/mL) of the same molecule?
A: 19%

Q: What about the “Rate of pMAPK-positive cells (%)” value ([1]; 250 μg/mL) of the same molecule?
A: 71%

Q: And the “Rate of pMAPK-positive cells (%)” value ([1]; 500 μg/mL)?
A: 53%

Q: And the inhibition in vivo at 0.3 mg/kg [2]?
A: 58.1%

Q: With `CCCCCCC/C=C/C(=O)N(CC)CCN(CC)CC` [Compound 44, (E)-N-(2-(diethylamino)ethyl)-N-ethyl dec-2-enamide] as the molecule, how does the “Rate of pMAPK-positive cells (%)” value ([1]; 62.5 μg/mL) read?
A: 17%

Q: And the “Rate of pMAPK-positive cells (%)” value ([1]; 125 μg/mL)?
A: 7%

Q: And the “Rate of pMAPK-positive cells (%)” value ([1]; 250 μg/mL)?
A: 18%

Q: What about the inhibition in vivo at 0.3 mg/kg [2] of the same molecule?
A: 62.6%

Q: Which results are given for `CCCCCCC/C=C/C(=O)N(CCCN(C)C)CCCN(C)C` [Compound 47, (E)-N,N-bis(3-(dimethylamino)propyl) dec-2-enamide]?
A: Rate of pMAPK-positive cells (%) ([1]; 62.5 μg/mL): 17%; Rate of pMAPK-positive cells (%) ([1]; 125 μg/mL): 33%; Rate of pMAPK-positive cells (%) ([1]; 250 μg/mL): 23%; inhibition in vivo at 0.3 mg/kg [2]: 37.4%

Q: `CCCCCCC/C=C/C(=O)N(CCN(CC)CC)CCN(CC)CC` [Compound 46, (E)-N,N-bis(2-(diethylamino)ethyl) dec-2-enamide] was tested. Which “Rate of pMAPK-positive cells (%)” value ([1]; 62.5 μg/mL) did it give?
A: 22%

Q: What about the “Rate of pMAPK-positive cells (%)” value ([1]; 125 μg/mL) of the same molecule?
A: 13%

Q: What about the “Rate of pMAPK-positive cells (%)” value ([1]; 250 μg/mL) of the same molecule?
A: 32%

Q: What about the inhibition in vivo at 0.3 mg/kg [2] of the same molecule?
A: 19.9%

Q: With `CCCCCCC/C=C/C(=O)NCC` [Compound 16, (E)-N-ethyl dec-2-enamide] as the molecule, how does the inhibition in vivo at 0.3 mg/kg [2] read?
A: 59.7%

Q: For `CCCCCCC/C=C/C(=O)NC` [Compound 15, (E)-N-methyl dec-2-enamide], which inhibition in vivo at 0.3 mg/kg [2] is on record?
A: 37.7%

Q: For `CCCCCCC/C=C/C(=O)NCCCN(CC)CC` [Compound 39, (E)-N-3-(diethylamino)propyl dec-2-enamide], which inhibition in vivo at 0.3 mg/kg [2] is on record?
A: 49.7%

Q: How did the inhibition in vivo at 0.3 mg/kg [2] turn out when `CCCCCCC/C=C/C(=O)N(CC)CCCCCCC` [Compound 35, (E)-N-ethyl-N-heptyl dec-2-enamide] was run?
A: 47.1%

Q: How did the inhibition in vivo at 0.3 mg/kg [2] turn out when `CCCCCCC/C=C/C(=O)NC1CCCCC1` [Compound 27, (E)-N-cyclohexyl dec-2-enamide] was run?
A: 46.4%

Q: Which results are given for `CCCCCCC/C=C/C(=O)N(CC)CCN(C)C` [Compound 43, (E)-N-(2-(dimethylamino)ethyl)-N-ethyl dec-2-enamide]?
A: Rate of pMAPK-positive cells (%) ([1]; 62.5 μg/mL): 20%; Rate of pMAPK-positive cells (%) ([1]; 125 μg/mL): 26%; Rate of pMAPK-positive cells (%) ([1]; 250 μg/mL): 49%; inhibition in vivo at 0.3 mg/kg [2]: 40.3%

Q: Which inhibition in vivo at 0.3 mg/kg [2] does the source give for `CCCCCCC/C=C/C(=O)Nc1ccccc1` [Compound 28, (E)-N-phenyl dec-2-enamide] here?
A: 19.4%

Q: With `CCCCCCC/C=C/C(=O)SCCC(C)C` [Compound 49, (E)-S-isopentyl dec-2-enethioate] as the molecule, how does the inhibition in vivo at 0.3 mg/kg [2] read?
A: 69.3%

Q: `CCCCCCC/C=C/C(=O)SCCCCCCCCCC` [Compound 52, (E)-S-decyl dec-2-enethioate] was tested. Which inhibition in vivo at 0.3 mg/kg [2] did it give?
A: 18.7%

Q: Which inhibition in vivo at 0.3 mg/kg [2] does the source give for `CCCCCCC/C=C/C(=O)SCCCCCCC` [Compound 51, (E)-S-heptyl dec-2-enethioate] here?
A: 45.7%

Q: How did the inhibition in vivo at 0.3 mg/kg [2] turn out when `CCCCCCC/C=C/C(=O)SCCCCCC` [Compound 50, (E)-S-hexyl dec-2-enethioate] was run?
A: 51.7%

Q: With `CCCCCCC/C=C/C(=O)NCCC(C)C` [Compound 20, (E)-N-isopentyl dec-2-enamide] as the molecule, how does the inhibition in vivo at 0.3 mg/kg [2] read?
A: 42.5%

Q: `CCCCCCC/C=C/C(=O)N(C)CCN(C)C` [Compound 42, (E)-N-(2-(dimethylamino)ethyl)-N-methyl dec-2-enamide] was tested. Which “Rate of pMAPK-positive cells (%)” value ([1]; 62.5 μg/mL) did it give?
A: 6%

Q: What about the “Rate of pMAPK-positive cells (%)” value ([1]; 125 μg/mL) of the same molecule?
A: 7%

Q: What about the “Rate of pMAPK-positive cells (%)” value ([1]; 250 μg/mL) of the same molecule?
A: 27%

Q: What about the inhibition in vivo at 0.3 mg/kg [2] of the same molecule?
A: 48.7%

Q: Which “Rate of pMAPK-positive cells (%)” value ([1]; 62.5 μg/mL) does the source give for `CCCCCCC/C=C/C(=O)N(CCN(C)C)CCN(C)C` [Compound 45, (E)-N,N-bis(2-(dimethylamino)ethyl) dec-2-enamide] here?
A: 34%

Q: And the “Rate of pMAPK-positive cells (%)” value ([1]; 125 μg/mL)?
A: 67%

Q: What about the “Rate of pMAPK-positive cells (%)” value ([1]; 250 μg/mL) of the same molecule?
A: 50%

Q: And the inhibition in vivo at 0.3 mg/kg [2]?
A: 37%

Q: How did the inhibition in vivo at 0.3 mg/kg [2] turn out when `CCCCCCC/C=C/C(=O)NCCc1ccccc1` [Compound 29, (E)-N-phenethyl dec-2-enamide] was run?
A: 46.3%

Q: How did the inhibition in vivo at 0.3 mg/kg [2] turn out when `CCCCCCC/C=C/C(=O)OC(COCC)COCC` [Compound 11, (E)-1,3-diethoxy-2-propyl dec-2-enoate] was run?
A: 37.6%
